Measured values as given in patent publication US6362369B1, “Phthalic acid diamide derivatives fluorine-containing aniline compounds as starting material, agricultural and horticultural insecticides, and a method for application of the insecticides” (Nihon Nohyaku Co., Ltd., priority 1997, dated 2002).

Legend:
[1] = tested on: diamondback moth (Plutella xylostella); test: Insecticidal effect on diamondback moth (Test Example 1); format: in vivo; conditions: mortality judged according to the criterion shown in Test Example 1
Summary of the method: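 Oviposition by adults on Chinese cabbage seedling; immersion; air-dry; 25° C room. Count of hatched larvae at day 6 post-immersion → mortality → effect graded by criterion. Triplicate, 10 insects/group.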

[2] = tested on: rice leafroller (Cnaphalocrocis medinalis); test: Insecticidal effect on rice leafroller (Test Example 3); format: in vivo; conditions: 500 ppm, rice lamina dip, third-instar larvae, four days after inoculation, 25° C., humidity 70%
Summary of the method: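 Insecticidal effect is judged by a predefined criterion from dead/alive counts four days after infesting air-dried lamina with third-instar larvae, kept on moistened filter paper at 25° C, 70% humidity.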

SMILES	Insecticidal effect on diamondback moth (Test Example 1), judged grade [1]	Insecticidal effect on rice leafroller (Test Example 3), judged grade [2]
COc1c(C)ccc(NC(=O)c2cccc([N+](=O)[O-])c2C(=O)NC(C)C)c1C [compound 694]	A (100)	A (100)
Cc1cc(OCC(F)(F)F)ccc1NC(=O)c1cccc([N+](=O)[O-])c1C(=O)NC(C)C [compound 697]	A (100)	A (100)
CC(C)NC(=O)c1c(C(=O)Nc2ccc(OC(F)(F)F)cc2Cl)cccc1[N+](=O)[O-] [compound 704]	A (100)	A (100)
Cc1c(NC(=O)c2cccc([N+](=O)[O-])c2C(=O)NC(C)C)ccc(OC(F)F)c1Cl [compound 717]	A (100)	A (100)
Cc1cc(OC(F)(F)C(F)F)c(Cl)cc1NC(=O)c1cccc([N+](=O)[O-])c1C(=O)NC(C)C [compound 718]	A (100)	A (100)
Cc1cc(SC(F)F)ccc1NC(=O)c1cccc([N+](=O)[O-])c1C(=O)NC(C)C [compound 722]	A (100)	A (100)
Cc1cc(N(C)C)ccc1NC(=O)c1cccc([N+](=O)[O-])c1C(=O)NC(C)C [compound 723]	D (79-50)	D (79-50)
Cc1cc(Oc2cccc(C(F)(F)F)c2)ccc1NC(=O)c1cccc([N+](=O)[O-])c1C(=O)NC(C)C [compound 724]	A (100)	B (99-90)
Cc1cc(Oc2ccc(C(F)(F)F)cn2)ccc1NC(=O)c1cccc([N+](=O)[O-])c1C(=O)NC(C)C [compound 728]	A (100)	A (100)
Cc1cc(Oc2ncc(C(F)(F)F)cc2Cl)ccc1NC(=O)c1cccc([N+](=O)[O-])c1C(=O)NC(C)C [compound 729]	A (100)	A (100)
CC(C)NC(=O)c1cccc([N+](=O)[O-])c1C(=O)Nc1ccc(C(F)(F)F)cc1Cl [compound 740]	A (100)	A (100)
Cc1cc(Cl)ccc1NC(=O)c1cccc(C)c1C(=O)NC(C)C [compound 750]	A (100)	A (100)
Cc1cc(OC(F)F)ccc1NC(=O)c1cccc(C)c1C(=O)NC(C)C [compound 751]	A (100)	A (100)
Cc1ccc(Cl)cc1NC(=O)c1cccc(C(F)(F)F)c1C(=O)NC(C)C [compound 755]	A (100)	A (100)
COc1cccc(C(=O)NC(C)C)c1C(=O)Nc1ccc(OC(F)(F)F)cc1 [compound 769]	A (100)	D (79-50)
COc1cccc(C(=O)NC(C)C)c1C(=O)Nc1ccc(Br)cc1C [compound 771]	A (100)	C (89-80)
Cc1cc(Cl)ccc1NC(=O)c1cccc(OC(F)F)c1C(=O)NC(C)C [compound 772]	A (100)	A (100)
Cc1ccc(Cl)cc1NC(=O)c1cccc(OC(F)F)c1C(=O)NC(C)C [compound 773]	A (100)	A (100)
Cc1cc(OC(F)F)ccc1NC(=O)c1cccc(OC(F)F)c1C(=O)NC(C)C [compound 774]	A (100)	A (100)
Cc1ccc(Cl)cc1NC(=O)c1cc(OC(F)F)ccc1C(=O)NC(C)C [compound 776]	B (99-90)	D (79-50)
Cc1cc(Cl)ccc1NC(=O)c1c(OC(F)F)cccc1C(=O)NC(C)C [compound 777]	A (100)	D (79-50)
Cc1ccc(Cl)cc1NC(=O)c1c(OC(F)F)cccc1C(=O)NC(C)C [compound 778]	A (100)	A (100)
CSc1cccc(C(=O)Nc2ccc(Br)cc2C)c1C(=O)NC(C)C [compound 782]	A (100)	A (100)
